# Measured values: patent US10597388B2, “Pyridazinone herbicides” (FMC CORPORATION, priority 2014, dated 2020)
# Assays:
# Test in all cases: Test F mixtures with commercial herbicides, Post- or Pre-emergence
# Format in all cases: in vivo
# [1] = tested on: LOLMU, Italian Ryegrass (Lolium multiflorum); settings: scale 0-100
# Procedure: (§1) This test evaluated the effect of mixtures of Compound 1 or Compound 2 with various commercial herbicides on multiple plant species. Seeds of multiple plant species selected were planted into Sandy Loam soil and treated either Post-emergence or Pre-emergence with test chemicals formulated in a non-phytotoxic solvent mixture. Plants were grown in a greenhouse using supplemental lighting to maintain a photoperiod of approximately 16 h; daytime and nighttime temperatures were approximately 24-30 and 19-21° C., respectively. Balanced fertilizer was applied through the watering system. Treated plants and controls were maintained in a greenhouse for 20 d, after which time all species were compared to controls and visually evaluated. Plant response ratings summarized in Tables F1 through F4 and are based on a scale of 0 to 100 where 0 is no effect and 100 is complete control. A dash (-) response means no test result. Application rates (i.e. “Rate”) are expressed in grams of active ingredient per hectare (g a.i./ha). In the following tables KCHSC is kochia (Kochia scoparia), LOLMU in Italian Ryegrass (Lolium multiflorum), AMBEL is common ragweed (Ambrosia elatior), ECHCG is barnyardgrass (Echinochloa crus-galli), SETVI is giant foxtail (Setaria faberii), AMARE is redroot pigweed (Amaranthus retroflexus), ALOMY is blackgrass (Alopecurus myosuroides) and GALAP is galium (Galium aparine). “Obsd.” is observed effect. “Exp.” is expected effect calculated from Colby's Equation.
# (§2) Colby's Equation was used to determine the herbicidal effects expected from the mixtures. Colby's Equation (Colby, S. R. “Calculating Synergistic and Antagonistic Responses of Herbicide Combinations,” Weeds, 15(1), pp 20-22 (1967)) calculates the expected additive effect of herbicidal mixtures, and for two active ingredients is of the form: Pa+b=Pa+Pb−(PaPb/100)
# (§3) wherein Pa+b is the percentage effect of the mixture expected from additive contribution of the individual components:
# (§4) Pa is the observed percentage effect of the first active ingredient at the same use rate as in the mixture, and
# (§5) Pb is the observed percentage effect of the second active ingredient at the same use rate as in the mixture.
# [2] = tested on: AMARE, redroot pigweed (Amaranthus retroflexus); settings: scale 0-100
# Procedure: as §1, §2, §3, §4, §5
# [3] = tested on: ALOMY, blackgrass (Alopecurus myosuroides); settings: Table F3, Post-emergence, scale 0-100
# Procedure: as §1, §2, §3, §4, §5
# [4] = tested on: ECHCG, barnyardgrass (Echinochloa crus-galli); settings: scale 0-100
# Procedure: as §1, §2, §3, §4, §5
# [5] = tested on: KCHSC, kochia (Kochia scoparia); settings: scale 0-100
# Procedure: as §1, §2, §3, §4, §5
# [6] = tested on: SETVI, giant foxtail (Setaria faberii); settings: scale 0-100
# Procedure: as §1, §2, §3, §4, §5
# [7] = tested on: AMBEL, common ragweed (Ambrosia elatior); settings: scale 0-100
# Procedure: as §1, §2, §3, §4, §5
# [8] = tested on: GALAP, galium (Galium aparine); settings: Table F3, Post-emergence, scale 0-100
# Procedure: as §1, §2, §3, §4, §5
# [9] = Pre-emergence, Rate 16 g a.i./ha
# [10] = Pre-emergence, Rate 62 g a.i./ha
# [11] = Table F3, Post-emergence, Rate 16 g a.i./ha
# [12] = Table F3, Post-emergence, Rate 62 g a.i./ha
smiles,measurement,setting,value
"Cc1cc(C)c2sc(C)c(-c3c(O)c(C)nn(C)c3=O)c2c1 [Compound 2, 5-hydroxy-2,6-dimethyl-4-(2,5,7-trimethylbenzo[b]thien-3-yl)-3(2H)-pyridazinone]",LOLMU Obsd.,[1]; [9],0
same,LOLMU Obsd.,[1]; [10],50
same,LOLMU Obsd.,[1]; [11],75
same,LOLMU Obsd.,[1]; [12],95
same,AMARE Obsd.,[2]; [9],25
same,AMARE Obsd.,[2]; [10],75
same,AMARE Obsd.,[2]; [11],25
same,AMARE Obsd.,[2]; [12],80
same,ALOMY Obsd.,[3]; Rate 16 g a.i./ha,20
same,ALOMY Obsd.,[3]; Rate 62 g a.i./ha,60
same,ECHCG Obsd.,[4]; [9],0
same,ECHCG Obsd.,[4]; [10],25
same,ECHCG Obsd.,[4]; [11],5
same,ECHCG Obsd.,[4]; [12],20
same,KCHSC Obsd.,[5]; [9],0
same,KCHSC Obsd.,[5]; [10],0
same,KCHSC Obsd.,[5]; [11],50
same,KCHSC Obsd.,[5]; [12],75
same,SETVI Obsd.,[6]; [9],60
same,SETVI Obsd.,[6]; [10],98
same,SETVI Obsd.,[6]; [11],15
same,SETVI Obsd.,[6]; [12],80
same,AMBEL Obsd.,[7]; [9],30
same,AMBEL Obsd.,[7]; [10],95
same,AMBEL Obsd.,[7]; [11],40
same,AMBEL Obsd.,[7]; [12],80
same,GALAP Obsd.,[8]; Rate 16 g a.i./ha,100
same,GALAP Obsd.,[8]; Rate 62 g a.i./ha,100
